Results from article PMC6407913, “DREADD Agonist 21 Is an Effective Agonist for Muscarinic-Based DREADDs in Vitro and in Vivo” (ACS Pharmacology & Translational Science, 2018).
Where “and” joins values, the source holds several entries; their conditions need not be identical. Equal values may be shown once.

Tests used:
Assay type in all cases: cell-based
[1] = target: T1, 318 nonolfactory human GPCRs (Homo sapiens, UniProt O00222); conditions: GRM8; C21 5 µM
T1 construct: expressed in transfected cells; host or cells: HTLA cells, transient

[2] = target: T2, 318 nonolfactory human GPCRs (Homo sapiens, UniProt O95800); conditions: GPR75; C21 5 µM
T2 construct: expressed in transfected cells; host or cells: HTLA cells, transient

[3] = target: 318 nonolfactory human GPCRs (Homo sapiens, UniProt O95977); conditions: S1PR4; C21 5 µM
[4] = target: T3, 318 nonolfactory human GPCRs (Homo sapiens, UniProt P08912); conditions: CHRM5; C21 5 µM
T3 construct: expressed in transfected cells; host or cells: HTLA cells, transient

[5] = target: 318 nonolfactory human GPCRs (Homo sapiens, UniProt P14416); conditions: DRD2; C21 5 µM
[6] = target: T4, 318 nonolfactory human GPCRs (Homo sapiens, UniProt P21452); conditions: TACR2; C21 5 µM
T4 construct: expressed in transfected cells; host or cells: HTLA cells, transient

[7] = target: 318 nonolfactory human GPCRs (Homo sapiens, UniProt P21728); conditions: DRD1; C21 5 µM
[8] = target: T5, 318 nonolfactory human GPCRs (Homo sapiens, UniProt P28222); conditions: HTR1B; C21 5 µM
T5 construct: expressed in transfected cells; host or cells: HTLA cells, transient

[9] = target: 318 nonolfactory human GPCRs (Homo sapiens, UniProt P28566); conditions: HTR1E; C21 5 µM
[10] = target: T6, 318 nonolfactory human GPCRs (Homo sapiens, UniProt P30518); conditions: AVPR2; C21 5 µM
T6 construct: expressed in transfected cells; host or cells: HTLA cells, transient

[11] = target: T7, 318 nonolfactory human GPCRs (Homo sapiens, UniProt P30968); conditions: GNRHR; C21 5 µM
T7 construct: expressed in transfected cells; host or cells: HTLA cells, transient

[12] = target: T8, 318 nonolfactory human GPCRs (Homo sapiens, UniProt P32245); conditions: MC4R; C21 5 µM
T8 construct: expressed in transfected cells; host or cells: HTLA cells, transient

[13] = target: T9, 318 nonolfactory human GPCRs (Homo sapiens, UniProt P34998); conditions: CRHR1; C21 5 µM
T9 construct: expressed in transfected cells; host or cells: HTLA cells, transient

[14] = target: T10, 318 nonolfactory human GPCRs (Homo sapiens, UniProt P35368); conditions: ADRA1B; C21 5 µM
T10 construct: expressed in transfected cells; host or cells: HTLA cells, transient

[15] = target: 318 nonolfactory human GPCRs (Homo sapiens, UniProt P35462); conditions: DRD3; C21 5 µM
[16] = target: T11, 318 nonolfactory human GPCRs (Homo sapiens, UniProt P46091); conditions: GPR1; C21 5 µM
T11 construct: expressed in transfected cells; host or cells: HTLA cells, transient

[17] = target: T12, 318 nonolfactory human GPCRs (Homo sapiens, UniProt P47775); conditions: GPR12; C21 5 µM
T12 construct: expressed in transfected cells; host or cells: HTLA cells, transient

[18] = target: T13, 318 nonolfactory human GPCRs (Homo sapiens, UniProt P47901); conditions: AVPR1B; C21 5 µM
T13 construct: expressed in transfected cells; host or cells: HTLA cells, transient

[19] = target: T14, 318 nonolfactory human GPCRs (Homo sapiens, UniProt P50052); conditions: AGTR2; C21 5 µM
T14 construct: expressed in transfected cells; host or cells: HTLA cells, transient

[20] = target: T15, 318 nonolfactory human GPCRs (Homo sapiens, UniProt Q01726); conditions: MC1R; C21 5 µM
T15 construct: expressed in transfected cells; host or cells: HTLA cells, transient

[21] = target: T16, 318 nonolfactory human GPCRs (Homo sapiens, UniProt Q15391); conditions: P2RY14; C21 5 µM
T16 construct: expressed in transfected cells; host or cells: HTLA cells, transient

[22] = target: T17, 318 nonolfactory human GPCRs (Homo sapiens, UniProt Q86Y34); conditions: GPR97; C21 5 µM
T17 construct: expressed in transfected cells; host or cells: HTLA cells, transient

[23] = target: T18, 318 nonolfactory human GPCRs (Homo sapiens, UniProt Q8NFJ6); conditions: PK2; C21 5 µM
T18 construct: expressed in transfected cells; host or cells: HTLA cells, transient

[24] = target: T19, 318 nonolfactory human GPCRs (Homo sapiens, UniProt Q8TDV0); conditions: GPR151; C21 5 µM
T19 construct: expressed in transfected cells; host or cells: HTLA cells, transient

[25] = target: T20, 318 nonolfactory human GPCRs (Homo sapiens, UniProt Q96AM1); conditions: MRGPRF; C21 5 µM
T20 construct: expressed in transfected cells; host or cells: HTLA cells, transient

[26] = target: T21, 318 nonolfactory human GPCRs (Homo sapiens, UniProt Q96G91); conditions: P2RY11; C21 5 µM
T21 construct: expressed in transfected cells; host or cells: HTLA cells, transient

[27] = target: T22, 318 nonolfactory human GPCRs (Homo sapiens, UniProt Q96P67); conditions: GPR82; C21 5 µM
T22 construct: expressed in transfected cells; host or cells: HTLA cells, transient

[28] = target: 318 nonolfactory human GPCRs (Homo sapiens, UniProt Q96PE1); conditions: GPR124; C21 5 µM
[29] = target: T23, 318 nonolfactory human GPCRs (Homo sapiens, UniProt Q99527); conditions: GPER; C21 5 µM
T23 construct: expressed in transfected cells; host or cells: HTLA cells, transient

[30] = target: T24, 318 nonolfactory human GPCRs (Homo sapiens, UniProt Q99705); conditions: MCHR1R; C21 5 µM
T24 construct: expressed in transfected cells; host or cells: HTLA cells, transient

[31] = target: T25, 318 nonolfactory human GPCRs (Homo sapiens, UniProt Q9HC97); conditions: GPR35; C21 5 µM
T25 construct: expressed in transfected cells; host or cells: HTLA cells, transient

[32] = target: T26, 318 nonolfactory human GPCRs (Homo sapiens, UniProt Q9NPC1); conditions: LTB4R2B; C21 5 µM
T26 construct: expressed in transfected cells; host or cells: HTLA cells, transient

[33] = target: T27, 318 nonolfactory human GPCRs (Homo sapiens, UniProt Q9P1P5); conditions: TAAR2; C21 5 µM
T27 construct: expressed in transfected cells; host or cells: HTLA cells, transient

[34] = target: T28, 318 nonolfactory human GPCRs (Homo sapiens, UniProt Q9Y2T5); conditions: GPR52; C21 5 µM
T28 construct: expressed in transfected cells; host or cells: HTLA cells, transient
T28 sequence (Q9Y2T5 whole entry): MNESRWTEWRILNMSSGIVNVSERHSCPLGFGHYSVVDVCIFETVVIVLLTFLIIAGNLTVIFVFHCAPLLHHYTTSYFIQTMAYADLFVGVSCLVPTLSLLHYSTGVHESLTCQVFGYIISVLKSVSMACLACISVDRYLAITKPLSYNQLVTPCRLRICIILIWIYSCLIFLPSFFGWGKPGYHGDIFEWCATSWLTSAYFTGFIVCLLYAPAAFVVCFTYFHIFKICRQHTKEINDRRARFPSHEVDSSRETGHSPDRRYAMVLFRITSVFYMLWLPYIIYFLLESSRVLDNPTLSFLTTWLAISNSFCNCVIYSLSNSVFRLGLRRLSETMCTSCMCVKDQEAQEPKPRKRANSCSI

T11 sequence (P46091 whole entry): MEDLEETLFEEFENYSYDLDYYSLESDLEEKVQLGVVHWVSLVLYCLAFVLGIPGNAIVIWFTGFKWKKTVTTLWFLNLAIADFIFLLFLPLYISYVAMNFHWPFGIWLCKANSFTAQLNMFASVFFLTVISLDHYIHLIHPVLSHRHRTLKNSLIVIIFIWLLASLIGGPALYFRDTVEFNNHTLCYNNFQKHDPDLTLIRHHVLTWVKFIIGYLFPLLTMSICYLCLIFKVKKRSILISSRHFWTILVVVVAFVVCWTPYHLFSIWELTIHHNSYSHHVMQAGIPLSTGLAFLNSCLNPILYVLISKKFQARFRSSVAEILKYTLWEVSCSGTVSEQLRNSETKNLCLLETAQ
T15 sequence (Q01726 whole entry): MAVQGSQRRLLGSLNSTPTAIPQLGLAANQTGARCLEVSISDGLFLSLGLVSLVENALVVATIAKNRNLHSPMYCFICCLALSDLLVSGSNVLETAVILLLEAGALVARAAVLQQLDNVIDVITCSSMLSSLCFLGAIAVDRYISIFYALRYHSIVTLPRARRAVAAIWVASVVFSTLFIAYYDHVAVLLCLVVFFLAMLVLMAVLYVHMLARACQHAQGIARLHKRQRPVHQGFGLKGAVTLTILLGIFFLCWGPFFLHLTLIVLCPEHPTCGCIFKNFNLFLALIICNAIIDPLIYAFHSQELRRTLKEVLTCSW
T13 sequence (P47901 whole entry): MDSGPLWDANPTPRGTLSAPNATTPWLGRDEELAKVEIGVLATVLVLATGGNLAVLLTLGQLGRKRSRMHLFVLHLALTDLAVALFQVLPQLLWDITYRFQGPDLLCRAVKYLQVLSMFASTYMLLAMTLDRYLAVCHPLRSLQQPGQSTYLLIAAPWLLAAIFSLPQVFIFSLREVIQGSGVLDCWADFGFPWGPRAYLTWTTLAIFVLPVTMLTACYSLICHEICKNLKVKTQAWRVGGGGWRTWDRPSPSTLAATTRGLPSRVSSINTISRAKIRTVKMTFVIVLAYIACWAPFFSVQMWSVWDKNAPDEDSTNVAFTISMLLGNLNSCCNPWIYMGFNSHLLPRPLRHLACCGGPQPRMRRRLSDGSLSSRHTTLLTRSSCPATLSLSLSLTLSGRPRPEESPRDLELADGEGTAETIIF
T25 sequence (Q9HC97 whole entry): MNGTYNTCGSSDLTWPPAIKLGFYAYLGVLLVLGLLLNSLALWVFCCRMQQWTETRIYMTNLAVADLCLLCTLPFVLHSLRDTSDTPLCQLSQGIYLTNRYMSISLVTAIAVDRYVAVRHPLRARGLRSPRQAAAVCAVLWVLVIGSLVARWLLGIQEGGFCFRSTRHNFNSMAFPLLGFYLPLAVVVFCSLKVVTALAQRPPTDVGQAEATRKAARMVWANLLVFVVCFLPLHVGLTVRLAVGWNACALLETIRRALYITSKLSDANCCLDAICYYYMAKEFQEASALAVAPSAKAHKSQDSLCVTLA
T12 sequence (P47775 whole entry): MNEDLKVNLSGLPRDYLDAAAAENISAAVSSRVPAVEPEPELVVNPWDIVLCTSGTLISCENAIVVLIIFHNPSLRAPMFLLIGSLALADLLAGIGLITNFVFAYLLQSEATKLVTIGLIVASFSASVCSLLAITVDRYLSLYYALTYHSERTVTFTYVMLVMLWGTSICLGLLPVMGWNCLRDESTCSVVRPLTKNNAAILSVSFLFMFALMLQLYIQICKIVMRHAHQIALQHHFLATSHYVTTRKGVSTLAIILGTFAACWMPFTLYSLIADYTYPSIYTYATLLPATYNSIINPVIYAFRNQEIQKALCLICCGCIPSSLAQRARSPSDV
T7 sequence (P30968 whole entry): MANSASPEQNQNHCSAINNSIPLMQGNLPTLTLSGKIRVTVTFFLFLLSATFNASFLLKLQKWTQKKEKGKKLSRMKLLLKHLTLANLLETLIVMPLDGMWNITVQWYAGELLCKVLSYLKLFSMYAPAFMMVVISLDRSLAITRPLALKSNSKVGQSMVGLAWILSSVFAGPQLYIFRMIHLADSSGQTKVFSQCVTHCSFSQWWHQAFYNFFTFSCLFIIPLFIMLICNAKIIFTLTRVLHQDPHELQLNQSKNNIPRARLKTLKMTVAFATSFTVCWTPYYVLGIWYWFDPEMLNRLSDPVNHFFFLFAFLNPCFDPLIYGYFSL
Chain of 318 nonolfactory human GPCRs (Homo sapiens, UniProt P14416) (P14416 whole entry): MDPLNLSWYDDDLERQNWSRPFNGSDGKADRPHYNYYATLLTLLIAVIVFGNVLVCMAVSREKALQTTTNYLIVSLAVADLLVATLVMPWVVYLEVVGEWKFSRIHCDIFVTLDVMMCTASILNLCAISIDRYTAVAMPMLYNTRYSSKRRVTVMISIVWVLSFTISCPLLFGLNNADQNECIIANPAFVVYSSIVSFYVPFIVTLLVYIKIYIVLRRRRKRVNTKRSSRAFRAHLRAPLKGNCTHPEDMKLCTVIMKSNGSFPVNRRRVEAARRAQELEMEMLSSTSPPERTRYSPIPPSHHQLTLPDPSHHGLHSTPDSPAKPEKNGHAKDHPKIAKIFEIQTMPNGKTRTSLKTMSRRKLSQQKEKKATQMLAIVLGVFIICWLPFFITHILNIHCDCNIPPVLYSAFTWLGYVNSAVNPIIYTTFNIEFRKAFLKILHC
T24 sequence (Q99705 whole entry): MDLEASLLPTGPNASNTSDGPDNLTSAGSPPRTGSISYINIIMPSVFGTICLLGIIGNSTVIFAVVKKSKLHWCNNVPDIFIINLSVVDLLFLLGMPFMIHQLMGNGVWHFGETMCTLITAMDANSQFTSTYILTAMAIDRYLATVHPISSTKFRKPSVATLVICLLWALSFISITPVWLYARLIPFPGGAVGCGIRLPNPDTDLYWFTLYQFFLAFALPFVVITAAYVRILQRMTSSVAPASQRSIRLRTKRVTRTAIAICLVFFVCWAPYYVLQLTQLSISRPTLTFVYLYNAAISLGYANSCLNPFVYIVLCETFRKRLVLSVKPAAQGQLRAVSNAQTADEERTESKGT
Chain of 318 nonolfactory human GPCRs (Homo sapiens, UniProt P35462) (P35462 whole entry): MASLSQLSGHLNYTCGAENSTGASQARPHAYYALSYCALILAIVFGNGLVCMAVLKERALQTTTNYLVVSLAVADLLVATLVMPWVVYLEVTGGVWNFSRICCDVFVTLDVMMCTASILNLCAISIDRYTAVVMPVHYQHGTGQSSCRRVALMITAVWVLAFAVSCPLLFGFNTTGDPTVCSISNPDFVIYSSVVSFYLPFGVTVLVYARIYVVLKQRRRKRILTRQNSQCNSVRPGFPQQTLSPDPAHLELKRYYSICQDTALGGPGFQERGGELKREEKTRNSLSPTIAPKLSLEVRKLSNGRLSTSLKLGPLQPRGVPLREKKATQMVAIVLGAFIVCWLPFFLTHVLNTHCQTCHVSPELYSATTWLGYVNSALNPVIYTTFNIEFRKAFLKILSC
T26 sequence (Q9NPC1 whole entry): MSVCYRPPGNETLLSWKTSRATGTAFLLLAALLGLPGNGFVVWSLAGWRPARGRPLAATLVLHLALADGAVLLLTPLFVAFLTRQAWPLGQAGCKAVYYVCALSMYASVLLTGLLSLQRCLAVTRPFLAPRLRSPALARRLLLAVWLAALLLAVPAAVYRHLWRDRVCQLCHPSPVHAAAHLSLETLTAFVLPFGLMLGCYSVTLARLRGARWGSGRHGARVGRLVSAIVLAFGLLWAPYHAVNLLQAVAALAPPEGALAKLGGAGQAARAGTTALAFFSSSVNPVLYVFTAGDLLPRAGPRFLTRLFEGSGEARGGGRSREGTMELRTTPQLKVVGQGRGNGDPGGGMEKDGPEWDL
T16 sequence (Q15391 whole entry): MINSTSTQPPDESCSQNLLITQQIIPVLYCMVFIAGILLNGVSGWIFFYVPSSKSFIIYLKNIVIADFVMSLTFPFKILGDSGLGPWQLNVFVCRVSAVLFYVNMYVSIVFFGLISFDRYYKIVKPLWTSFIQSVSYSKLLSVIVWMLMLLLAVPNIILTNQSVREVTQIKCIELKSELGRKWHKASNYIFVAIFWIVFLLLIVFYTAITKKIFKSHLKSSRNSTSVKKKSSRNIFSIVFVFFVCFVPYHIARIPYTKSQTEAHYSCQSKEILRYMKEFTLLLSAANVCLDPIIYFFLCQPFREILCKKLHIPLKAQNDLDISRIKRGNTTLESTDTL
T23 sequence (Q99527 whole entry): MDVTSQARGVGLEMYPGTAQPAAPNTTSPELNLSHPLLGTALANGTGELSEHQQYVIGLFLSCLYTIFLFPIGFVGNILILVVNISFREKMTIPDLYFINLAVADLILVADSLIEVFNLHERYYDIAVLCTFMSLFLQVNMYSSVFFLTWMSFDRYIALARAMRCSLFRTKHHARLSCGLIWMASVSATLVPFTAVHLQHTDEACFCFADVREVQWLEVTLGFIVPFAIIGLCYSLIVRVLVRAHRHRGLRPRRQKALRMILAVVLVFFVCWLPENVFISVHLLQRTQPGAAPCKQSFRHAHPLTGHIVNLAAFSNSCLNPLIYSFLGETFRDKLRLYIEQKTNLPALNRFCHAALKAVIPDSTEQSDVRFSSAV

c1ccc2c(c1)N=C(N1CCNCC1)c1ccccc1N2 [C21, 11-(1-piperazinyl)-5H-dibenzo[b,e][1,4]diazepine]
FOLD OVER BASAL [1]: 0.7 fold and 0.9 fold and 0.6 fold | FOLD OVER BASAL [2]: 1.1 fold and 0.8 fold and 0.7 fold | FOLD OVER BASAL [3]: 1.3 fold and 1 fold and 0.7 fold and 1.1 fold | FOLD OVER BASAL [4]: 0.7 fold and 0.8 fold | FOLD OVER BASAL [5]: 8.7 fold and 13.6 fold and 9.4 fold and 16.1 fold | FOLD OVER BASAL [6]: 0.7 fold and 0.9 fold and 0.6 fold and 1.1 fold | FOLD OVER BASAL [7]: 0.9 fold and 0.8 fold and 0.5 fold and 0.6 fold | FOLD OVER BASAL [8]: 0.7 fold and 0.8 fold and 0.9 fold | FOLD OVER BASAL [9]: 1 fold and 0.9 fold and 1.1 fold | FOLD OVER BASAL [10]: 1.1 fold and 1.2 fold | FOLD OVER BASAL [11]: 0.6 fold and 1.2 fold and 0.9 fold and 0.7 fold | FOLD OVER BASAL [12]: 1.2 fold and 0.6 fold | FOLD OVER BASAL [13]: 1.8 fold and 0.9 fold and 1.1 fold and 1.2 fold | FOLD OVER BASAL [14]: 1 fold and 0.8 fold and 1.1 fold and 0.7 fold | FOLD OVER BASAL [15]: 3.6 fold and 4.2 fold and 3.3 fold and 5.4 fold | FOLD OVER BASAL [16]: 1.1 fold and 1.4 fold and 0.8 fold and 1 fold | FOLD OVER BASAL [17]: 0.5 fold and 0.7 fold and 0.6 fold | FOLD OVER BASAL [18]: 0.4 fold and 0.6 fold and 0.7 fold | FOLD OVER BASAL [19]: 1.1 fold and 0.9 fold and 1 fold | FOLD OVER BASAL [20]: 0.9 fold and 1.1 fold and 1 fold and 0.7 fold | FOLD OVER BASAL [21]: 0.9 fold and 0.7 fold and 1.1 fold and 0.8 fold | FOLD OVER BASAL [22]: 0.6 fold and 0.5 fold and 0.7 fold | FOLD OVER BASAL [23]: 0.9 fold and 1 fold and 1.1 fold and 1.3 fold | FOLD OVER BASAL [24]: 0.6 fold and 0.5 fold | FOLD OVER BASAL [25]: 1.4 fold and 1.3 fold and 1 fold and 0.7 fold | FOLD OVER BASAL [26]: 1.1 fold and 0.8 fold and 0.6 fold and 0.9 fold | FOLD OVER BASAL [27]: 1 fold and 0.9 fold and 1.1 fold | FOLD OVER BASAL [28]: 1 fold and 0.7 fold | FOLD OVER BASAL [29]: 0.4 fold and 0.2 fold and 0.3 fold | FOLD OVER BASAL [30]: 1 fold and 0.8 fold and 1.1 fold and 1.4 fold | FOLD OVER BASAL [31]: 1 fold and 1.2 fold and 0.9 fold and 1.3 fold | FOLD OVER BASAL [32]: 1 fold and 0.9 fold and 1.1 fold and 1.2 fold | FOLD OVER BASAL [33]: 1.1 fold and 1 fold and 0.7 fold and 0.9 fold | FOLD OVER BASAL [34]: 0.8 fold and 1 fold and 0.6 fold
